In patent US9980967B1, “Method for overcoming drug resistance of EGFR mutation and cancerous stemness of human non-small cell lung carcinoma” (NATIONAL CHIAO TUNG UNIVERSITY, priority 2017, dated 2018):

Tests used:
H1975 xenograft tumors = experiment: Xenografted human NSCLC (H1975) tumors in nude mice; assay type: in vivo; settings: 30 mg/kg once per four days
Text: The results were obtained from twelve mice and the bar represents the mean±S.E.M.**p<0.01, indicating significant difference between control and SP101 treatment group mice. ###p<0.001 indicates significant differences between SP101 and Gefitinib-treated mice.
The tumor weight was means±*p<0.05 indicating significant differences between control and SP101 treatment group mice. #p<0.05 indicates significant differences between SP101 and Gefitinib-treated mice.
NSCLC tumors in nude mice were established. Seven-week-old nude mice were subcutaneously injected with 3×10^6 H1975 cells. Please refer to FIGS. 7 and 8. After 7 to 10 days inoculation, the nude mice were treated with vehicle or 30 mg/kg SP101 or 30 mg/kg Gefitinib once per four days and tumor sizes in the nude mice were measured every four days. The nude mice were sacrificed after treatment for 16 days; the tumors were harvested to measure tumor volume/weight and further analyze tumor tissues. […] Please refer to FIG. 9.

[1] = tested on: Oct4, Nanog and Survivin in A549-ON cells; experiment: Western blot and immunofluorescence of Oct4, Nanog and Survivin in A549-ON cells; assay type: cell-based, human
Description: (§1) At the end of treatment, the total protein extracts were prepared for Western blot analyses using specific antibodies, including rabbit anti-Survivin, rabbit anti-cleaved caspase 3 and mouse anti-actin. Representative immunoblotting data were shown from one of three separate experiments with similar findings. GAPDH was an internal control protein.
(§2) FIG. 17 is a result of immunofluorescence staining and confocal microscopy. Then green color indicates the location of Oct4 excited with 488 nm and the emission and collected in 493-518 nm. The β-tubulin was stained with Cy3-labeled mouse anti-β-tubulin antibody. The fluorescence intensity of β-tubulin (red color) was excited with 543 nm and the emission was collected in range of 560-580 nm. Blue fluorescence indicates nuclei following staining with Hoechst 33258 and was excited with 405 nm and the emission was collected in 415-450 nm. Overlapping localization is shown in the merged images.
as §2, with “18” for “17”, “Survivin protein” for “Oct4”
Oct4 and Nanog have been served as markers of tumorigenesis. Furthermore, Oct4 played a pivotal role in Gefitinib resistance in lung cancer stem cells. […] Please refer to FIG. 16. […] We further investigated the expression of Oct4 and Survivin by immunofluorescence staining and confocal microscopy. Please refer to FIGS. 17 and 18. The green fluorescence (dylight 488) indicated the location of Oct4 and Survivin. The blue fluorescence (Hoechst 33258) and red (Cy3) fluorescence represent nucleus and β-tubulin, respectively. Treatment with 30 μM SP101 for 24 hours inhibited Oct4 proteins expression and induced apoptotic bodies as shown in FIG. 17; moreover, the Survivin proteins were inhibited by SP101 treatment as shown in FIG. 18.

A549 cells = experiment: Annexin V/PI apoptosis flow cytometry in A549 cells; assay type: cell-based, human; settings: 30 μM for 24 hours
Description: At the end of treatment, apoptosis was measured by Annexin VPI staining using flow cytometry analysis. The population of Annexin V+/PI− cells represents cells undergoing early apoptosis (low right), whereas the fraction of Annexin V+/PI+ cell are those undergoing late apoptosis (upper right). The representative flow data were shown from one of three separate experiments with similar findings.
(§3) Please refer to FIG. 14. The expressions of phosphorylated EGFR and total EGFR proteins after treatment with SP101 (10˜40 μM for 24 hours) in the K-Ras mutation A549 cells were analyzed by Western blot. […] Please refer to FIG. 15. We further examined the apoptosis levels of SP101 in A549 cells by Annexin V and PI staining. The cells were trypsinized and then incubated with propidium iodide (5 μl) and Annexin V-FITC (5 μl) at room temperature for 5 min before flow cytometry.

[2] = molecular target: T1, phosphorylated EGFR (Tyr1068) (Homo sapiens, UniProt P00533); experiment: Western blot of phosphorylated EGFR and total EGFR in A549 cells; assay type: cell-based; settings: 10~40 μM for 24 hours
T1 construct: endogenous in cells; host or cells: A549 (ATCC CCL-185)
Description: as §1, with “anti-p-EGFR (Tyr1068),” for “anti-Survivin,”, “anti-EGFR” for “anti-cleaved caspase 3”, “Actin” for “GAPDH”
as §3

[3] = 30 μM for 24 hours, immunofluorescence and confocal microscopy
[4] = 20<30 μM for 24 hours, Western blot

T1 sequence (P00533 25-1210): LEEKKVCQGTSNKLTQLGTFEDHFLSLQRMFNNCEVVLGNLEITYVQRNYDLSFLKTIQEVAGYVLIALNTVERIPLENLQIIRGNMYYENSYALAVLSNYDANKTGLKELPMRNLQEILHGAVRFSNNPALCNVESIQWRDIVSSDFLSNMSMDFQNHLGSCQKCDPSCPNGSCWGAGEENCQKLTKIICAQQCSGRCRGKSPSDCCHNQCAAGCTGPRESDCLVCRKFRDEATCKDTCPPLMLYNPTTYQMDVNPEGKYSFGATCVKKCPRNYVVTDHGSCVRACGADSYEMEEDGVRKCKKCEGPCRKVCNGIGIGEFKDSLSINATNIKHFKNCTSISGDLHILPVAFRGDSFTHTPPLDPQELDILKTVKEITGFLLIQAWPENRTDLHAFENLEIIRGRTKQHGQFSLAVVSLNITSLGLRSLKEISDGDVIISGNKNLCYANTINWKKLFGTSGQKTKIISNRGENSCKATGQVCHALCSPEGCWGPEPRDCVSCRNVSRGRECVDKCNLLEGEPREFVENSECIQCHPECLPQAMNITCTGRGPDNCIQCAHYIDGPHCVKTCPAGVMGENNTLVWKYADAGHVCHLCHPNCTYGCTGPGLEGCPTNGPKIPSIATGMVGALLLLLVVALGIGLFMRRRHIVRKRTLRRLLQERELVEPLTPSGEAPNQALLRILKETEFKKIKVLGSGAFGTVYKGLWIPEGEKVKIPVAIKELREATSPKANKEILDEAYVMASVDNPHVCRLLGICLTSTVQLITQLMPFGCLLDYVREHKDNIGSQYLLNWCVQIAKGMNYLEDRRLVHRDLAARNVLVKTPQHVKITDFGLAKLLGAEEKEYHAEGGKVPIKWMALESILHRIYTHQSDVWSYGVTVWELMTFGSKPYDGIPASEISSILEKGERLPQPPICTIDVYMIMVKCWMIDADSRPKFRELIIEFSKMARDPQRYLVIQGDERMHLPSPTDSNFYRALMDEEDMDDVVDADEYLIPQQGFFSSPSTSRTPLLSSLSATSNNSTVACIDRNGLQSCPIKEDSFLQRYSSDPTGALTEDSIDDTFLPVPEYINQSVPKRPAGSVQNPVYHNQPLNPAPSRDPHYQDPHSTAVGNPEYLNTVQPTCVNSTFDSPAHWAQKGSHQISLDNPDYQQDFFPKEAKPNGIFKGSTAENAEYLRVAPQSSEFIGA

For `CCCCCCCCCCCCOC(=O)CCC(=O)N1CCN(CCCOc2cc3c(Nc4ccc(F)c(Cl)c4)ncnc3cc2OC)CC1` [SP101, dodecyl 4-(4-(3-(4-(3-chloro-4-fluorophenylamino)-7-methoxyquinazolin-6-yloxy)propyl)piperazin-1-yl)-4-oxobutanoate], the “body weight of the nude mice” value (H1975 xenograft tumors; during the treatment period) was “did not alter”, the tumor growth (H1975 xenograft tumors; H1975 xenograft in nude mice, 16 days) was “significantly inhibited” and the tumor weight (H1975 xenograft tumors; H1975 xenograft in nude mice, after sacrifice at 16 days, compared with Gefitinib) was “more potent on the inhibition of tumor weight than Gefitinib”. The Oct4 proteins expression [1, 3] was “inhibited”, the Survivin proteins [1, 3] was “inhibited” and the Nanog protein expression [1, 4] was “significantly reduced”. For the same compound, the Oct4 protein expression [1, 4] was “significantly reduced”, the Survivin protein expression [1, 4] was “significantly reduced” and the “levels of Annexin V+/PI− cells (early apoptosis) and Annexin V+/PI+ cells (late apoptosis)” value (A549 cells) was “significantly increased”. For the same compound, the “phosphorylated EGFR (Tyr1068) protein levels” value [2] was “significantly reduced” and the “total EGFR protein levels” value [2] was “did not alter”.
